SMILES strings stand for the structures. Entries after “also recorded” stand apart in the source; their conditions may differ. Like-named read-outs stand apart in the source and are kept apart here.

The subject of assay [1] is rats. Put plainly: Vogel punished drinking test, conflict paradigm (anticonflict effect). It is filed as in vivo. Particulars: Rattus norvegicus, iv, 0.25 h; i.v., 15 min before test, shock 0.8 mA; fiducial limits on following line.
Assay [2] has as its system rats. As to the kind of experiment: Vogel punished drinking test with PTZ, proconflict paradigm (anti-proconflict effect, anti-proconflict index). It is filed as in vivo, rat. Particulars: for ED50: Rattus norvegicus, iv, 0.25 h, i.v., 15 min before test, PTZ i.p., shock 0.35 mA, fiducial limits on following line; for anti-proconflict index: ratio of ED50 values anticonflict/antiproconflict; for antiproconflict index compared with reference compounds: in words, vs Bretazenil, prior art compound or diazepam.

Assay [3] is described as follows: Duration of action at doses equipotent to Bretazenil. It is filed as in vivo.
Assay [4] deals with rats. Particulars: background, cited from earlier work; for potency in antagonizing conflict and proconflict responses: in words; for anti-proconflict index: Giusti et al. 1991.
In assay [5] the test system is rats. As to the kind of experiment: Chemical kindling with pentylenetetrazole (PTZ), kindled seizures. It counts as in vivo, rat. Particulars: per os; for ED50 vs kindled seizures: 30 min before PTZ 30 mg/kg i.p., n 25; for potency relative to diazepam in kindling seizure test: PTZ kindling. As for the experimental part: Kindled seizures were induced in rats by i.p. injection of 30 mg/kg of PTZ every 2nd day for 9 weeks.

Assay [6] concerns rats. As to the kind of experiment: Development of tolerance to the anticonvulsant effect against bicuculline seizures. It is filed as in vivo, rat. Particulars: oral; for development of tolerance to anticonvulsant action: 3 times daily up to 70 days, in words. As to the method:
The bicuculline seizure test (see Massotti et al., J. Pharmacol. Exp. Ther. 256: 1154-1156, 1991) consists in infusing a bicuculline solution (0.27 μmol/kg) into the rat tail vein at a constant rate (0.46 ml/min) and records the first sign of myoclonic jerk and the full myoclonic convulsion. The dose of bicuculline required to elicit these responses was taken as an index of the efficacy of diazepam and inventive compounds against seizures induced by a decrease of GABAergic tone (Massotti et al., J. Pharmacol. Exp. Ther. 256: 1154-1160, 1990). […] Possible development of tolerance to the antagonism of bicuculline convulsion was tested on various days after the beginning of the protracted treatment with the inventive compounds.

Assay [7] concerns rats. Particulars: background, in words; cited from earlier work.
The conditions of assay [8]: background, in words; cited from earlier work.

A word on the ED50: it is the dose that gives a 50% effect, or the effect in half of the subjects. A high value points to a need for a large dose. Consider `NC(=O)c1ncn2c1CN=C(c1ccccc1Cl)c1cc(Cl)ccc1-2` [8-chloro-6-(2-chlorophenyl) -4H-imidazo-[1,5-a][1,4]benzodiazepine-3-carboxamide, reference compound], for which the ED50 with rats [1] was found to be 2 µmol/kg; in the assay on rats [2], 0.45 µmol/kg. Moreover, the “anti-proconflict index” value in the assay with rats [2] is 5.0.

As for `CC(C)(C)OC(=O)c1ncn2c1[C@@H]1CCCN1C(=O)c1c(Br)cccc1-2` [Bretazenil, reference compound], the figures for the ED50 with rats [1] and in the assay on rats [2] were 2.4 µmol/kg and 0.2 µmol/kg, respectively. Besides, the “anti-proconflict index” value in the assay on rats [2] is listed as 12; in the assay on rats [4], around 10. Further, in assay [3] (Bretazenil, equipotent dose), the duration of action was in the range of 0.25 to 0.75 h. Also, the “potency in antagonizing conflict and proconflict responses” value with rats [4] was “surpassed those of the anxiolytic BZD ligands diazepam, zolpidem, alpidem, and midazolam; also recorded: significantly more potent in antagonizing the proconflict effect”.

As to `CN1C(=O)CN=C(c2ccccc2)c2cc(Cl)ccc21` [Diazepam, reference compound], the values for the 50% effective dose (ED50) in the assay with rats [1] and in the assay with rats [2] were 2 µmol/kg and 1.9 µmol/kg, respectively. Further, the “anti-proconflict index” value in the assay on rats [2] is on record as 1; in the assay on rats [4], around 1. The “ED50 vs kindled seizures” value in the assay with rats [5] is 5.7 (2.9-11.2). Besides, the “development of tolerance to anticonvulsant action” value with rats [6] is recorded as “developed after a few days of treatment”. In addition, the “prevention of development of kindling seizures” value in the assay with rats [7] is “powerful agents to prevent the development of seizures”. In assay [8], the “development of tolerance in chronic maintenance therapy” value is recorded as “rapid development of tolerance”.

Molecule `NC(=O)c1ncn2c1CN=C(c1ccccc1Br)c1cc(F)ccc1-2` [Example 9, 6-(2-Bromophenyl)-8-fluoro-4H-imidazo[1,5-a][1,4]benzodiazepine-3-carboxamide] registered an ED50 in the assay with rats [1] of 2.9 µmol/kg. In the assay with rats [2], the ED50 worked out at 0.061 µmol/kg, the “antiproconflict index compared with reference compounds” value (shortened to “antiproconflict index”) is on record as “antiproconflict index larger than that of Bretazenil” and the “anti-proconflict index” value was found to be 48. Besides, in the assay on rats [5], the “ED50 vs kindled seizures” value is on record as 0.25 (.071-0.883) and the “potency relative to diazepam in kindling seizure test” value (from here on “potency relative to diazepam”) is given as “approximately 20 fold”. Further, in the assay with rats [6] (3 times daily), the “days of treatment without anticonvulsant tolerance” value is given as at least 70 days. Also, in the assay with rats [6], the “development of tolerance to anticonvulsant action” value was “maintained its anticonvulsant effect unabated without tolerance”.

`CCNC(=O)c1ncn2c1CN=C(c1ccccc1Br)c1cc(F)ccc1-2` [Example 10, 6-(2-Bromophenyl)-N-ethyl-8-fluoro-4H-imidazo[1,5-a][1,4]-benzodiazepine-3-carboxamide]: in the assay on rats [1], the ED50 came to 2.8 µmol/kg. Further, in the assay on rats [2], it took a dose of 0.079 µmol/kg to reach the 50% effect level (ED50), the “antiproconflict index” value is reported as “antiproconflict index larger than that of Bretazenil” and the “anti-proconflict index” value was determined as 35. The “potency relative to diazepam” value with rats [5] is 12 fold.

As to `CCCNC(=O)c1ncn2c1CN=C(c1ccccc1Br)c1cc(F)ccc1-2` [Example 11(a)], it took a dose of 2.74 µmol/kg to reach the 50% effect level with rats [1] (ED50). Besides, in the assay with rats [2], the ED50 came out at 0.44 µmol/kg and the “antiproconflict index” value is “better than diazepam”. In addition, in assay [3] (equipotent doses to Bretazenil), the duration of action lay within 3 to 6 h. Also, the “potency relative to diazepam” value with rats [5] is on record as 2.2 fold.

The molecule `CC(C)NC(=O)c1ncn2c1CN=C(c1ccccc1Br)c1cc(F)ccc1-2` [Example 11(b), 6-(2-Bromophenyl)-8-fluoro-N-(1-methylethyl)-4-H-imidazo[1,5-a][1,4]benzodiazepine-3-carboxamide] returned a median effective dose (ED50) with rats [1] of 1.72 µmol/kg. In the assay on rats [2], it took a dose of 0.52 µmol/kg to reach the 50% effect level (ED50) and the “antiproconflict index” value is on record as “better than diazepam”. Moreover, the duration of action in assay [3] (equipotent doses to Bretazenil) fell in the range of 3 to 6 h. Besides, the “potency relative to diazepam” value with rats [5] was 2.5 fold.

Take `C=CCNC(=O)c1ncn2c1CN=C(c1ccccc1Br)c1cc(F)ccc1-2` [Example 11(c), 6-(2-Bromophenyl)-8-fluoro-N-(2-propenyl)-4H-imidazo[1,5-a][1,4]benzodiazepine-3-carboxamide]: in the assay with rats [1], the 50% effect level (ED50) was put at a dose of 3.6 µmol/kg. In the assay with rats [2], the ED50 stood at 0.18 µmol/kg, the “antiproconflict index” value is given as “antiproconflict index larger than that of Bretazenil” and the “anti-proconflict index” value was 20.

For the molecule `O=C(NCC1CC1)c1ncn2c1CN=C(c1ccccc1Br)c1cc(F)ccc1-2` [Example 11(d), 6-(2-Bromophenyl)-N-[(cyclopropyl)methyl]-8-fluoro-4H-imidazo[1,5-a][1,4]benzodiazepine-3-carboxamide], the results for the ED50 with rats [1] and with rats [2] were 3.3 µmol/kg and 0.43 µmol/kg, respectively. For the same molecule, the “antiproconflict index” value with rats [2] was “better than diazepam”. Besides, the duration of action in assay [3] (equipotent doses to Bretazenil) fell in the range of 3 to 6 h. Besides, the “potency relative to diazepam” value in the assay with rats [5] was 2 fold.

Consider `CCCN(CCC)C(=O)Cc1c(-c2ccc(Cl)cc2)nc2ccc(Cl)cn12` [alpidem], for which the anti-proconflict index in the assay on rats [4] is around 1.

On to `Cc1nnc2n1-c1ccc(Cl)cc1C(c1ccccc1)=NC2` [alprazolam], for which, in the assay with rats [4], the “potency in antagonizing conflict and proconflict responses” value is “surpassed those of the anxiolytic BZD ligands diazepam, zolpidem, alpidem, and midazolam; also recorded: significantly more potent in antagonizing the proconflict effect”; the anti-proconflict index is on record as around 10.

Regarding `O=C1CN=C(c2ccccc2Cl)c2cc([N+](=O)[O-])ccc2N1` [clonazepam], in the assay on rats [4], the “potency in antagonizing conflict and proconflict responses” value is “surpassed those of the anxiolytic BZD ligands diazepam, zolpidem, alpidem, and midazolam; also recorded: significantly more potent in antagonizing the proconflict effect”; the anti-proconflict index is listed as around 10. The “prevention of development of kindling seizures” value in the assay with rats [7] is recorded as “powerful agents to prevent the development of seizures”. Besides, in assay [8], the “development of tolerance in chronic maintenance therapy” value is “rapid development of tolerance”.

For the molecule `Cc1ncc2n1-c1ccc(Cl)cc1C(c1ccccc1F)=NC2` [midazolam], the anti-proconflict index with rats [4] is listed as around 1.

Take `Cc1ccc(-c2nc3ccc(C)cn3c2CC(=O)N(C)C)cc1` [zolpidem]: the anti-proconflict index in the assay with rats [4] is on record as around 1.

The values are drawn from patent publication US5317018A, “Benzodiazepines and compositions for treating anxiety and panic disorders, and idiopathic and psychomotor epilepsy” (priority 1992, dated 1994).
